Measurements published in patent EP0094632A1, “(-)-15-Deoxyspergualin, a process for the preparation of the same, and a pharmaceutical composition containing the same” (priority 1982, dated 1983).

Experiments:
Chemical stability = type: physicochemical
[1] = Carcinostatic action compared with synthetic 15-deoxyspergualin; settings: compared with 15-deoxyspergualin synthesized previously by condensation
[2] = test system: Mouse Leukemia L1210 cells; assay: Treatment of mouse Leukemia L1210 (survival of intraperitoneally inoculated mice); type: in vivo; settings: for No. of mice that survived 60 days: groups of 8 mice; for T/C %: observed 60 days
Method: […] Mouse Leukemia L1210 cells were inoculated intraperitoneally to groups of 8 mice each. The test compound dissolved in physiological saline solution was intraperitoneally administered once daily for 9 consecutive days, starting on the day inoculation. The animals were raised and observed for 60 days to determine survival rates (%). The survival rates were calculated from the following equation:
T [average period (in days) of survival for the treatment group] X 100
C [average period (in days) for survival for the non-treatment group]
The average survival period for the control (non-treatment group was 7.6 go 8.9 days.
The test results are shown in Table 1 along with those on (-)-spergualin.
Table 1:Efficacy of (-)-15-deoxyspergualin in the treatment of mose Leukemia L1210

[3] = test system: Bacillus subtilis PCI-219; assay: Antibacterial activity relative to (-)-spergualin; type: cell-based; settings: relative to (-)-spergualin (3HCl·½H2O)
Excerpt: The compound was colorless and syrupy, and its melting point could not be measured clearly. […] The antibacterial activity against Bacillus subtilis PCI-219' was 134 % of that of (-)-spergualin (3HCl·½H2O).

[4] = 0.05 mg/kg/day i.p. once daily for 9 days
[5] = 0.10 mg/kg/day i.p. once daily for 9 days
[6] = 0.20 mg/kg/day i.p. once daily for 9 days
[7] = 0.39 mg/kg/day i.p. once daily for 9 days
[8] = 0.78 mg/kg/day i.p. once daily for 9 days
[9] = 1.56 mg/kg/day i.p. once daily for 9 days
[10] = 3.13 mg/kg/day i.p. once daily for 9 days
[11] = 6.25 mg/kg/day i.p. once daily for 9 days
[12] = 12.5 mg/kg/day i.p. once daily for 9 days
[13] = 25 mg/kg/day i.p. once daily for 9 days
[14] = 50 mg/kg/day i.p. once daily for 9 days

Compound: N=C(N)NCCCCCCC(=O)NC(O)C(=O)NCCCCNCCCN (single isomer, unassigned; (-)) [(-)-15-Deoxyspergualin, (-)-15-deoxyspergualin]
- stability to alkalis and acids (Chemical stability; alkalis and acids): very unstable
- stability in the form of a free base (Chemical stability; free base): unstable
- carcinostatic action [1]: markedly better carcinostatic action
- No. of mice that survived 60 days [2, 4]: 0/8
- T/C % [2, 4]: 129%
- No. of mice that survived 60 days [2, 5]: 0/8
- T/C % [2, 5]: 138%
- No. of mice that survived 60 days [2, 6]: 6/8
- T/C % [2, 6]: >664%
- No. of mice that survived 60 days [2, 7]: 6/8
- T/C % [2, 7]: >629%
- No. of mice that survived 60 days [2, 8]: 8/8
- T/C % [2, 8]: >789%
- No. of mice that survived 60 days [2, 9]: 2/8
- T/C % [2, 9]: >493%
- No. of mice that survived 60 days [2, 10]: 2/8
- T/C % [2, 10]: >526%
- No. of mice that survived 60 days [2, 11]: 0/8
- T/C % [2, 11]: 408%
- antibacterial activity against Bacillus subtilis PCI-219, % of that of (-)-spergualin [3]: 134%

Compound: N=C(N)NCCCC[C@H](O)CC(=O)NC(O)C(=O)NCCCCNCCCN (single isomer, unassigned; (-)) [(-)-Spergualin, (-)-spergualin, reference compound]
- No. of mice that survived 60 days [2, 8]: 0/8
- T/C % [2, 8]: 107%
- No. of mice that survived 60 days [2, 9]: 1/8
- T/C % [2, 9]: >301%
- No. of mice that survived 60 days [2, 10]: 3/8
- T/C % [2, 10]: >441%
- No. of mice that survived 60 days [2, 11]: 8/8
- T/C % [2, 11]: >732%
- No. of mice that survived 60 days [2, 12]: 4/8
- T/C % [2, 12]: >586%
- No. of mice that survived 60 days [2, 13]: 0/8
- T/C % [2, 13]: 334%
- No. of mice that survived 60 days [2, 14]: 0/8
- T/C % [2, 14]: 295%
